Reference: PubChem BioAssay AID256 (DTP/NCI, 2004)
Inconclusive results and toxic doses are left out. The calls were made as follows: active = survival T/C of 150% or more; inactive = T/C below 125% in these data.

System: CD2F1 mice, L1210 leukemia ip, survival T/C
Test: NCI In Vivo Anticancer Drug Screen. Data for tumor model L1210 Leukemia (intraperitoneal) in CD2F1 (CDF1) mice
Conditions: higher = longer survival
Method in brief: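 Activity against a transplanted murine tumor was judged by comparing the compound group with a vehicle group. The outcome in the treated animals was divided by that in the controls.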

Measured: T/C

COC(CCl)(CCl)OC
inactive: endpoint: mean survival time, dose: 10.0 mg/kg/injection, schedule: Q01DX009 (ip), vehicle: saline with Tween-80 87 % of control | endpoint: mean survival time, dose: 20.0 mg/kg/injection, schedule: Q01DX009 (ip), vehicle: saline with Tween-80 90 % of control

CCCCCCCCCCCCOC(=O)C[n+]1cccc(C(=O)NCc2ccccc2)c1
inactive: endpoint: mean survival time, dose: 6.25 mg/kg/injection, schedule: Q04DX003 (ip), vehicle: saline with Tween-80 108 % of control | endpoint: mean survival time, dose: 12.5 mg/kg/injection, schedule: Q04DX003 (ip), vehicle: saline with Tween-80 104 % of control | endpoint: mean survival time, dose: 25.0 mg/kg/injection, schedule: Q04DX003 (ip), vehicle: saline with Tween-80 106 % of control

O=CCCNP(=O)(OCc1ccccc1)N(CCCl)CCCl (stereo not given)
inactive: endpoint: mean survival time, dose: 13.13 mg/kg/injection, schedule: Q01DX001 (ip), vehicle: DMSO 103 % of control | endpoint: mean survival time, dose: 26.25 mg/kg/injection, schedule: Q01DX001 (ip), vehicle: DMSO 98 % of control | endpoint: mean survival time, dose: 52.5 mg/kg/injection, schedule: Q01DX001 (ip), vehicle: DMSO 103 % of control | endpoint: mean survival time, dose: 105.0 mg/kg/injection, schedule: Q01DX001 (ip), vehicle: DMSO 104 % of control | endpoint: mean survival time, dose: 210.0 mg/kg/injection, schedule: Q01DX001 (ip), vehicle: DMSO 101 % of control | endpoint: mean survival time, dose: 420.0 mg/kg/injection, schedule: Q01DX001 (ip), vehicle: DMSO 101 % of control | endpoint: mean survival time, dose: 840.0 mg/kg/injection, schedule: Q01DX001 (ip), vehicle: DMSO 101 % of control

COc1cc2cc(c1Cl)N(C)C(=O)C[C@H](OC(=O)[C@H](C)N(C)C(C)=O)[C@]1(C)O[C@H]1[C@H](C)[C@@H]1C[C@@](O)(NC(=O)O1)[C@H](OC)C=C/C=C(\C)C2
inactive: endpoint: mean survival time, dose: 0.5 mg/kg/injection, schedule: Q01DX009 (ip), vehicle: saline 104 % of control | endpoint: mean survival time, dose: 1.0 mg/kg/injection, schedule: Q01DX009 (ip), vehicle: saline 109 % of control | endpoint: mean survival time, dose: 2.0 mg/kg/injection, schedule: Q01DX009 (ip), vehicle: saline 107 % of control | endpoint: mean survival time, dose: 32.0 mg/kg/injection, schedule: Q01DX009 (ip), vehicle: saline 91 % of control | endpoint: mean survival time, dose: 8.0 micrograms/kg/injection, schedule: Q01DX009 (ip), vehicle: saline + alcohol 111 % of control | endpoint: mean survival time, dose: 12.0 micrograms/kg/injection, schedule: Q01DX009 (ip), vehicle: saline + alcohol 109 % of control | endpoint: mean survival time, dose: 16.0 micrograms/kg/injection, schedule: Q01DX009 (ip), vehicle: saline + alcohol 112 % of control | endpoint: mean survival time, dose: 32.0 micrograms/kg/injection, schedule: Q01DX009 (ip), vehicle: saline + alcohol 122 % of control | endpoint: mean survival time, dose: 200.0 micrograms/kg/injection, schedule: Q01DX009 (ip), vehicle: saline + alcohol 120 % of control | endpoint: median survival time, dose: 4.0 micrograms/kg/injection, schedule: Q01DX009 (ip), vehicle: clinical formulation 117 % of control | endpoint: median survival time, dose: 8.0 micrograms/kg/injection, schedule: Q01DX009 (ip), vehicle: clinical formulation 117 % of control | endpoint: median survival time, dose: 16.0 micrograms/kg/injection, schedule: Q04DX003 (ip), vehicle: clinical formulation 112 % of control | endpoint: median survival time, dose: 32.0 micrograms/kg/injection, schedule: Q04DX003 (ip), vehicle: clinical formulation 117 % of control | endpoint: median survival time, dose: 64.0 micrograms/kg/injection, schedule: Q01DX001 (ip), vehicle: clinical formulation 110 % of control | endpoint: median survival time, dose: 512.0 micrograms/kg/injection, schedule: Q04DX003 (ip), vehicle: clinical formulation 96 % of control

CCC[CH2][Sn]1([CH2]CCC)[O]c2ccccc2[O]1
inactive: endpoint: mean survival time, dose: 1.56 mg/kg/injection, schedule: Q04DX002 (ip), vehicle: saline with Tween-80 100 % of control | endpoint: mean survival time, dose: 3.12 mg/kg/injection, schedule: Q04DX002 (ip), vehicle: saline with Tween-80 96 % of control | endpoint: mean survival time, dose: 6.25 mg/kg/injection, schedule: Q04DX002 (ip), vehicle: saline with Tween-80 98 % of control | endpoint: mean survival time, dose: 12.5 mg/kg/injection, schedule: Q04DX002 (ip), vehicle: saline with Tween-80 113 % of control

CC1(C(=O)O)CCCC2(C)C3=C(CCCC3)CCC12 (stereo not given)
inactive: endpoint: mean survival time, dose: 100.0 mg/kg/injection, schedule: Q01DX009 (ip), vehicle: saline with Tween-80 96 % of control | endpoint: mean survival time, dose: 100.0 mg/kg/injection, schedule: Q04DX003 (ip), vehicle: saline with Tween-80 98 % of control | endpoint: mean survival time, dose: 200.0 mg/kg/injection, schedule: Q01DX009 (ip), vehicle: saline with Tween-80 93 % of control | endpoint: mean survival time, dose: 200.0 mg/kg/injection, schedule: Q04DX003 (ip), vehicle: saline with Tween-80 93 % of control | endpoint: mean survival time, dose: 400.0 mg/kg/injection, schedule: Q01DX009 (ip), vehicle: saline with Tween-80 102 % of control | endpoint: mean survival time, dose: 400.0 mg/kg/injection, schedule: Q04DX003 (ip), vehicle: saline with Tween-80 90 % of control

COC(=O)C1C=C2c3cccc4[nH]cc(c34)CC2N(C)C1 (stereo not given)
inactive: endpoint: mean survival time, dose: 100.0 mg/kg/injection, schedule: Q04DX003 (ip), vehicle: saline sonified 97 % of control | endpoint: mean survival time, dose: 200.0 mg/kg/injection, schedule: Q04DX003 (ip), vehicle: saline sonified 97 % of control | endpoint: mean survival time, dose: 400.0 mg/kg/injection, schedule: Q04DX003 (ip), vehicle: saline sonified 109 % of control
